From ChEMBL document CHEMBL1201862, “PubChem BioAssay data set” (2004)
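Compound exposure: 48 hours, 5 concentrations, 96-well plates. The concentration for 50% growth inhibition is given as GI50.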 Active and inactive are the calls of the source. Cut-off read from the data, not from the text of the source: active = GI50 up to about 1.1 µM and inactive = higher. Non-standard residues stand in square brackets, D forms with d. Residues, ends and D or L forms follow the SMILES beside them. ξ: configuration not given here. *: point of attachment. Cbz = O=C(OCc1ccccc1)*; ξK = NCCCCC(N)C(=O)O

Columns and labels:
Assay in all cases: NCI tumour cell line growth inhibition, 48 h
MDA-N = tested on: MDA-N
EKVX = tested on: EKVX
UACC-62 = tested on: UACC-62
NCI-H460 = tested on: NCI-H460
Malme-3M = tested on: Malme-3M
SNB-75 = tested on: SNB-75
SK-MEL-28 = tested on: SK-MEL-28
SK-OV-3 = tested on: SK-OV-3
ACHN = tested on: ACHN
COLO 205 = tested on: COLO 205
UO-31 = tested on: UO-31
SK-MEL-2 = tested on: SK-MEL-2
SF-268 = tested on: SF-268
IGROV-1 = tested on: IGROV-1
NCI-H226 = tested on: NCI-H226
DU-145 = tested on: DU-145
M14 = tested on: M14
OVCAR-5 = tested on: OVCAR-5
BT-549 = tested on: BT-549

SMILES	GI50 (MDA-N)	GI50 (EKVX)	GI50 (UACC-62)	GI50 (NCI-H460)	GI50 (Malme-3M)	GI50 (SNB-75)	GI50 (SK-MEL-28)	GI50 (SK-OV-3)	GI50 (ACHN)	GI50 (COLO 205)	GI50 (UO-31)	GI50 (SK-MEL-2)	GI50 (SF-268)	GI50 (IGROV-1)	GI50 (NCI-H226)	GI50 (DU-145)	GI50 (M14)	GI50 (OVCAR-5)	GI50 (BT-549)
Nc1cc2c3c(cccc3c1)NC2=O	68.7 µM (inactive)	20.9 µM (inactive)	63 µM (inactive)	8.39 µM (inactive)	> 100 µM (inactive)	14.6 µM (inactive)	> 100 µM (inactive)	94 µM (inactive)	25.1 µM (inactive)	> 100 µM (inactive)	21.2 µM (inactive)	> 100 µM (inactive)	11.2 µM (inactive)	> 100 µM (inactive)	> 100 µM (inactive)	> 100 µM (inactive)	34.6 µM (inactive)	> 100 µM (inactive)	
N#CCCC(CC#N)N1CCN(CCO)CC1 (configuration not stated)		> 100 µM (inactive)	> 100 µM (inactive)	> 100 µM (inactive)	> 100 µM (inactive)	> 100 µM (inactive)	> 100 µM (inactive)	> 100 µM (inactive)	> 100 µM (inactive)	> 100 µM (inactive)	> 100 µM (inactive)		> 100 µM (inactive)	> 100 µM (inactive)	> 100 µM (inactive)	> 100 µM (inactive)	> 100 µM (inactive)	> 100 µM (inactive)	
Nc1ccccc1-n1c2c(c3ccccc3c1=O)C(=O)c1ccccc1-2		27.6 µM (inactive)	17.2 µM (inactive)	24.5 µM (inactive)	16.3 µM (inactive)	11.8 µM (inactive)	36.5 µM (inactive)	6.98 µM (inactive)	5.53 µM (inactive)	26.1 µM (inactive)	11.1 µM (inactive)	19.9 µM (inactive)	8.24 µM (inactive)	9.68 µM (inactive)	< 0.01 µM (active)	34 µM (inactive)	61.7 µM (inactive)	> 100 µM (inactive)	0.857 µM (active)
COC12c3ccccc3-c3ccccc3C1[C@@H](C(=O)O)[C@H]2C(=O)O (some centres not stated)	> 10 µM (inactive)	> 10 µM (inactive)		> 10 µM (inactive)	> 10 µM (inactive)	> 10 µM (inactive)	> 10 µM (inactive)	> 10 µM (inactive)	> 10 µM (inactive)	> 10 µM (inactive)	> 10 µM (inactive)	> 10 µM (inactive)	> 10 µM (inactive)	> 10 µM (inactive)	> 10 µM (inactive)	> 10 µM (inactive)	> 10 µM (inactive)	> 10 µM (inactive)	
CCCOP1(=O)C=C(C)C(Cl)=C(C)C1 (configuration not stated)		74.3 µM (inactive)	15 µM (inactive)	31.2 µM (inactive)		22.6 µM (inactive)	18.3 µM (inactive)	38.3 µM (inactive)	21.4 µM (inactive)	11.2 µM (inactive)	45.3 µM (inactive)	6.11 µM (inactive)	14.6 µM (inactive)	34.6 µM (inactive)	20.9 µM (inactive)		15.3 µM (inactive)	29.8 µM (inactive)	
NCCCCC(NC(=O)OCc1ccccc1)C(=O)NCC(N)=O (configuration not stated) (Cbz-[ξK]-Gly-NH2)	> 100 µM (inactive)	> 100 µM (inactive)	> 100 µM (inactive)	> 100 µM (inactive)	> 100 µM (inactive)	> 100 µM (inactive)	> 100 µM (inactive)	> 100 µM (inactive)	> 100 µM (inactive)	> 100 µM (inactive)	> 100 µM (inactive)	> 100 µM (inactive)	> 100 µM (inactive)	> 100 µM (inactive)	> 100 µM (inactive)	> 100 µM (inactive)	> 100 µM (inactive)	> 100 µM (inactive)	
O=C(CC(=O)N1N=C(N(c2ccccc2)c2ccccc2)CC1c1ccccc1)Nc1ccccc1 (configuration not stated)		> 100 µM (inactive)	34.4 µM (inactive)	> 100 µM (inactive)		61.4 µM (inactive)	> 100 µM (inactive)	80.9 µM (inactive)	> 100 µM (inactive)	> 100 µM (inactive)	> 100 µM (inactive)	> 100 µM (inactive)	40.8 µM (inactive)	> 100 µM (inactive)	> 100 µM (inactive)	> 100 µM (inactive)	> 100 µM (inactive)	> 100 µM (inactive)	> 100 µM (inactive)
Cc1cc(C)nc(NS(=O)(=O)c2ccc(NC(=O)NC(F)(F)F)cc2)n1	> 100 µM (inactive)	> 100 µM (inactive)				> 100 µM (inactive)	> 100 µM (inactive)	> 100 µM (inactive)	> 100 µM (inactive)	> 100 µM (inactive)	> 100 µM (inactive)	> 100 µM (inactive)	> 100 µM (inactive)	> 100 µM (inactive)			> 100 µM (inactive)	> 100 µM (inactive)	> 100 µM (inactive)
COc1ccc2c(c1)/C(=C\c1cccc(/C=C3/C(=O)Nc4ccc(OC)cc43)n1)C(=O)N2		2.84 µM (inactive)		1.4 µM (inactive)	2.01 µM (inactive)	19.1 µM (inactive)		2.02 µM (inactive)	1.71 µM (inactive)	0.33 µM (active)	1.67 µM (inactive)	3.01 µM (inactive)	2.42 µM (inactive)			2.1 µM (inactive)	1.32 µM (inactive)	1.01 µM (active)	0.91 µM (active)
C=C1C(O)C[C@H](OC(C)=O)[C@]2(C)C1C(OC(C)=O)[C@]1(C(C)(C)O)CC(O)C(C)=C1[C@@H](OC(=O)c1ccccc1)C2OC(C)=O (some centres not stated)	> 10 µM (inactive)	> 10 µM (inactive)	> 10 µM (inactive)	> 10 µM (inactive)		> 10 µM (inactive)	> 10 µM (inactive)	> 10 µM (inactive)	> 10 µM (inactive)	> 10 µM (inactive)	> 10 µM (inactive)	> 10 µM (inactive)	> 10 µM (inactive)	> 10 µM (inactive)	> 10 µM (inactive)	> 10 µM (inactive)	> 10 µM (inactive)	> 10 µM (inactive)	
O=C(O)CCC(NC(=O)c1ccc(CNc2nc3cc(C(F)(F)F)ccc3nc2C(=O)O)cc1)C(=O)O (configuration not stated)	> 100 µM (inactive)	> 100 µM (inactive)	> 100 µM (inactive)	> 100 µM (inactive)	> 100 µM (inactive)	> 100 µM (inactive)	> 100 µM (inactive)	> 100 µM (inactive)	> 100 µM (inactive)	> 100 µM (inactive)	> 100 µM (inactive)	> 100 µM (inactive)	> 100 µM (inactive)	> 100 µM (inactive)	> 100 µM (inactive)	> 100 µM (inactive)	> 100 µM (inactive)	> 100 µM (inactive)	
CC(C)OC(=O)[C@H]1ON2O[C@H](O[C@@H]3CCCC[C@H]3c3ccccc3)C([Si](C)(C)c3ccccc3)[C@H]3OC(=O)[C@@H]1C32 (some centres not stated)		> 100 µM (inactive)	> 100 µM (inactive)	> 100 µM (inactive)		> 100 µM (inactive)	> 100 µM (inactive)	> 100 µM (inactive)	> 100 µM (inactive)	> 100 µM (inactive)	> 100 µM (inactive)	> 100 µM (inactive)	> 100 µM (inactive)	> 100 µM (inactive)	> 100 µM (inactive)	> 100 µM (inactive)	> 100 µM (inactive)		> 100 µM (inactive)
CCCC1C(CC)C(NC)C(C#N)(C#N)C1(C#N)C#N (configuration not stated)	16 µM (inactive)	25.2 µM (inactive)	17.5 µM (inactive)		21.2 µM (inactive)	10 µM (inactive)	30.2 µM (inactive)	> 100 µM (inactive)	18.1 µM (inactive)	12.8 µM (inactive)	14.6 µM (inactive)	18.9 µM (inactive)	16.5 µM (inactive)	15.7 µM (inactive)	2.88 µM (inactive)	14.2 µM (inactive)	35.6 µM (inactive)	33.7 µM (inactive)	
N#Cc1c(-c2ccccc2)c(/C=N/c2ccc(F)cc2)c(=O)n2c1[nH]c1ccccc12	10.4 µM (inactive)	19.8 µM (inactive)		17.8 µM (inactive)	23.6 µM (inactive)	39 µM (inactive)	37.1 µM (inactive)	36.3 µM (inactive)	18.5 µM (inactive)	29.8 µM (inactive)	16.2 µM (inactive)	26.9 µM (inactive)	29.4 µM (inactive)	25.4 µM (inactive)	27.6 µM (inactive)		14.4 µM (inactive)	26.7 µM (inactive)	35.5 µM (inactive)
COC(=O)C(=O)C(C(=O)C(=O)Nc1cc([N+](=O)[O-])ccc1C#N)c1nc2ccccc2nc1O (configuration not stated)		35.5 µM (inactive)	> 100 µM (inactive)	> 100 µM (inactive)	> 100 µM (inactive)	> 100 µM (inactive)	> 100 µM (inactive)	> 100 µM (inactive)	> 100 µM (inactive)	> 100 µM (inactive)	99.3 µM (inactive)		> 100 µM (inactive)	> 100 µM (inactive)	> 100 µM (inactive)		> 100 µM (inactive)		
O=C1OCC2=Nc3cccc4cccc(c34)N12		57.1 µM (inactive)	> 100 µM (inactive)	> 100 µM (inactive)		> 100 µM (inactive)	> 100 µM (inactive)	> 100 µM (inactive)	> 100 µM (inactive)	> 100 µM (inactive)	> 100 µM (inactive)		> 100 µM (inactive)	> 100 µM (inactive)	> 100 µM (inactive)	> 100 µM (inactive)	> 100 µM (inactive)		> 100 µM (inactive)
Cc1ccc(C(=O)/C=C(\O)C(=O)NC23CC4CC(CC(C4)C2)C3)cc1	> 10 µM (inactive)	> 10 µM (inactive)	9.02 µM (inactive)		> 10 µM (inactive)	> 10 µM (inactive)	> 10 µM (inactive)	> 10 µM (inactive)		> 10 µM (inactive)			> 10 µM (inactive)			9.95 µM (inactive)	> 10 µM (inactive)		
